# Test results published in US20230248833A1, “COMPOUND HAVING BTK KINASE DEGRADING ACTIVITY, AND PREPARATION METHOD AND PHARMACEUTICAL USE THEREFOR” (SICHUAN HAISCO PHARMACEUTICAL CO., LTD., priority 2020, published 2023).
# Read-outs that look alike come from different tables or passages of the source.
# Columns and labels:
# Mino cells = test: Inhibition of cell proliferation, Mino cells (Cell Viability Assay, 72 h); assay type: cell-based, human; settings: Homo sapiens, MINO, 72 h
# Outline: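 Cells in RPMI1640 + 10% FBS were seeded at 20000/well (SU-DHL-4) or 5000/well (Mino, SU-DHL-6) and exposed to compound for 72 h at 37 °C in triplicate, with a DMSO vehicle control. Viability was read by […]. IC50 was fitted, and Max inhi.% was taken at the highest concentration relative to vehicle.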
# SU-DHL-4 cells = test: Inhibition of cell proliferation, SU-DHL-4 cells (Cell Viability Assay, 72 h); assay type: cell-based, human
# Protocol: (§1) SU-DHL-4, Mino, and SU-DHL-6 cells, in the culture medium of RPMI1640+10% FBS, were cultured in an incubator at 37° C. under 5% CO2. Cells were plated in a 96-well plate. Specifically, SU-DHL-4 cells were at 20000/well, Mino and SU-DHL-6 cells were at 5000/well, with 90 μL/well. 10 μL of the compounds at different concentrations were added to each well. There were 3 replicate wells for each concentration, and the last column, added with DMSO, was used as a vehicle control group. The cultures were continued for 72 hours at 37° C. under 5% CO2. After 72 hours, 100 μL of detection reagent (Cell Viability Assay, Promega, G7573) was added to each well, and the cultures were uniformly mixed for 2 minutes, and incubated at room temperature for 10 minutes. The […] signal value was measured with a microplate reader (PHERAstar FSX). The IC50 value of the compound on cell proliferation inhibition was calculated using origin9.2 software, and the inhibition rate at the highest concentration of the compound (Max inhi.%) was calculated according to formula (1).
# (§2) Max inhi.%=(1−T72administration/T72vehicle)×100 Formula (1).
# SU-DHL-6 cells = test: Inhibition of cell proliferation, SU-DHL-6 cells (Cell Viability Assay, 72 h); assay type: cell-based, human
# Protocol: as §1, §2
# [1] = Pharmacokinetic experiment in rats; assay type: in vivo; settings: male, SD, rat, plasma, po, i.g. (20 mg/kg); for AUC(0-t): single dose
# Protocol: Experimental objective: In this experiment, a single dose of each test compound was administered to SD rats intravenously and intragastrically, the concentrations of the test compound in plasma of rats were measured, and the pharmacokinetic characteristics and bioavailability of the test compound in rats were evaluated.
# Experimental animals: Male SD rats, about 200 g, 6-8 weeks old, 6 rats/compound. Rats were purchased from Hunan SJA Laboratory Animal Co., Ltd, with the laboratory animal production license number of SCXK (Xiang) 2019-004.
# Experimental method: On the day of the experiment, 6 SD rats were randomly grouped according to their body weight. The animals were fasted with water available for 12 to 14 hours one day before the administration of a test compound, and were fed 4 hours after the administration.
# Before and after the administration, […] of blood was taken from the orbit of the rats under isoflurane anesthesia, and placed in an EDTAK2 centrifuge tube. Centrifugation was carried out at 5000 rpm at 4° C. for 10 min, and the plasma was collected.
# Time points for sample collection in G1&G2 groups comprise
# Before analysis and detection, all samples were stored at −80° C. The samples were detected by HPLC-MS/MS.
# BTK = molecular target: T1, BTK (Homo sapiens, UniProt Q06187); test: Detection of BTK degradation in Mino cells (automated western blot); assay type: cell-based; settings: 48 hours
# T1 construct: endogenous in cells; host or cells: Mino human mantle cell lymphoma cells (ATCC)
# Protocol: Mino human mantle cell lymphoma cell line was purchased from ATCC and cultured under the following conditions: RPMI-1640+15% FBS+1% double antibody in a 37° C., 5% CO2 incubator. Cells were plated in a 6-well plate, with 5×10^5 cells/well. After plating, the compounds at different concentrations were added and cultured in an incubator at 37° C. under 5% CO2 for 48 hours. After culturing, the cells were collected, and RIPA lysis buffer (Beyotime, Cat. P0013B) was added. The cells were lysed on ice for 15 minutes, and centrifuged at 12000 rpm at 4° C. for 10 minutes. The protein sample of the supernatant was collected, and the protein was quantified by using the BCA kit (Beyotime, Cat. P0009), and then the protein was diluted to 0.25 mg/mL. The expressions of BTK (CST, Cat. 8547S) and the internal reference β-actin (CST, Cat. 3700S) were detected using a fully automated western blot quantitative analyzer (Proteinsimple) with a kit (Protein simple, Cat. SM-W004). The expression level of BTK relative to the internal reference was calculated using Compass software, and the DC50 value was calculated using Origin9.2 software according to formula (3). Specifically, the BTKadministration denoted the expression level of BTK in administration groups at different doses, and the BTKvehicle denoted the expression level of BTK in the vehicle control group. […]
# BTK protein = molecular target: T2, BTK protein (Mus musculus, UniProt P35991); test: Detection of BTK protein degradation in spleen of mice; assay type: in vivo; settings: po, female ICR mice, 3 consecutive days of intragastric administration, read-out: DD50 value of compounds on BTK protein degradation in spleen of mice
# T2 construct: from tissue; host or cells: spleen of female ICR mice
# Protocol: Female ICR mice, 6-8 weeks old, were purchased from BEIJING VITAL RIVER LABORATORY ANIMAL TECHNOLOGY CO., LTD, and the experiment was started after 3 days of adaptation. After 3 consecutive days of intragastric administration of different doses of the compound, the spleen of mice was taken, the spleen cells were collected, and RIPA lysis buffer (Beyotime, Cat. P0013B) was added. The cells were lysed on ice for 15 minutes, and centrifuged at 12000 rpm at 4° C. for 10 minutes. The protein sample of the supernatant was collected, and the protein was quantified by using the BCA kit (Beyotime, Cat. P0009), and then the protein was diluted to 0.25 mg/mL. The expressions of BTK (CST, Cat. 8547S) and the internal reference β-actin (CST, Cat. 3700S) were detected using a fully automated western blot quantitative analyzer (Proteinsimple). The expression level of BTK relative to the internal reference was calculated using Compass software, and the DD50 value was calculated using Origin9.2 software according to formula (4). Specifically, the BTKadministration denoted the expression level of BTK in administration groups at different doses, and the BTKvehicle denoted the expression level of BTK in the vehicle control group. BTK %=BTKadministration/BTKvehicle×100% formula (4)
# Aiolos = molecular target: T3, Aiolos (Homo sapiens, UniProt Q9UKT9); test: Detection of Aiolos degradation in Mino cells (automated western blot); assay type: cell-based; settings: 48 hours
# T3 construct: endogenous in cells; host or cells: Mino human mantle cell lymphoma cells (ATCC)
# Protocol: Mino is a human mantle cell lymphoma cell line purchased from ATCC and cultured under the following conditions: RPMI-1640+15% FBS+1% double antibody in a 37° C., 5% CO2 incubator. Cells were plated in a 6-well plate, with 5×10^5 cells/well. After plating, the compounds at different concentrations were added and cultured in an incubator at 37° C. under 5% CO2 for 48 hours. After culturing, the cells were collected, and RIPA lysis buffer (Beyotime, Cat. P0013B) was added. The cells were lysed on ice for 15 minutes, and centrifuged at 12000 rpm at 4° C. for 10 minutes. The protein sample of the supernatant was collected, and the protein was quantified by using the BCA kit (Beyotime, Cat. P0009), and then the protein was diluted to 0.25 mg/mL. The expressions of Aiolos (CST, Cat. 15103S) and the internal reference GAPDH (CST, Cat. 5174S) were detected using a fully automated western blot quantitative analyzer (Proteinsimple). The expression level of Aiolos relative to the internal reference was calculated using Compass software, and the DC50 value was calculated using Origen9.2 software according to formula (5). Specifically, the Aiolosadministration denoted the expression level of Aiolos in administration groups at different doses, and the Aiolosvehicle denoted the expression level of Aiolos in the vehicle control group.
# Aiolos %=Aiolosadministration/Aiolosvehicle×100% formula (5)
# [2] = molecular target: T4, hERG potassium ion channel (Homo sapiens, UniProt Q12809); test: Effect on hERG potassium ion channel, manual patch-clamp in CHO cells; assay type: cell-based; settings: CHO cells stably expressing hERG, whole cell patch-clamp, room temperature; read-out: IC50 value of inhibitory effect on hERG potassium channel current
# T4 construct: expressed in transfected cells
# Source text: Experimental platform: electrophysiological manual patch-clamp system
# Cell line: Chinese hamster ovary (CHO) cells stably expressing hERG potassium ion channel
# Experimental method: In CHO (Chinese Hamster Ovary) cells stably expressing hERG potassium channel, whole cell patch-clamp technique was used to recorded hERG potassium channel current at room temperature. The glass microelectrode is made of a glass electrode blank (BF150-86-10, Sutter) by a puller. The tip resistance after filling the liquid in the electrode is about 2-5 MQ. The glass microelectrode can be connected to the patch-clamp amplifier by inserting the glass microelectrode into an amplifier probe. The clamping voltage and data recording are controlled and recorded by the pClamp 10 software through a computer. The sampling frequency is 10 kHz, and the filtering frequency is 2 kHz. […]
# Data analysis processing was carried out by using pClamp 10, GraphPad Prism 5 and Excel software. The inhibition degree of hERG potassium current (peak value of hERG tail current induced at −50 mV) at different compound concentrations was calculated by the following formula: […]
# Compound IC50 was calculated using GraphPad Prism 5 software by fitting according to the following equation: […]
# T4 sequence (Q12809 whole entry): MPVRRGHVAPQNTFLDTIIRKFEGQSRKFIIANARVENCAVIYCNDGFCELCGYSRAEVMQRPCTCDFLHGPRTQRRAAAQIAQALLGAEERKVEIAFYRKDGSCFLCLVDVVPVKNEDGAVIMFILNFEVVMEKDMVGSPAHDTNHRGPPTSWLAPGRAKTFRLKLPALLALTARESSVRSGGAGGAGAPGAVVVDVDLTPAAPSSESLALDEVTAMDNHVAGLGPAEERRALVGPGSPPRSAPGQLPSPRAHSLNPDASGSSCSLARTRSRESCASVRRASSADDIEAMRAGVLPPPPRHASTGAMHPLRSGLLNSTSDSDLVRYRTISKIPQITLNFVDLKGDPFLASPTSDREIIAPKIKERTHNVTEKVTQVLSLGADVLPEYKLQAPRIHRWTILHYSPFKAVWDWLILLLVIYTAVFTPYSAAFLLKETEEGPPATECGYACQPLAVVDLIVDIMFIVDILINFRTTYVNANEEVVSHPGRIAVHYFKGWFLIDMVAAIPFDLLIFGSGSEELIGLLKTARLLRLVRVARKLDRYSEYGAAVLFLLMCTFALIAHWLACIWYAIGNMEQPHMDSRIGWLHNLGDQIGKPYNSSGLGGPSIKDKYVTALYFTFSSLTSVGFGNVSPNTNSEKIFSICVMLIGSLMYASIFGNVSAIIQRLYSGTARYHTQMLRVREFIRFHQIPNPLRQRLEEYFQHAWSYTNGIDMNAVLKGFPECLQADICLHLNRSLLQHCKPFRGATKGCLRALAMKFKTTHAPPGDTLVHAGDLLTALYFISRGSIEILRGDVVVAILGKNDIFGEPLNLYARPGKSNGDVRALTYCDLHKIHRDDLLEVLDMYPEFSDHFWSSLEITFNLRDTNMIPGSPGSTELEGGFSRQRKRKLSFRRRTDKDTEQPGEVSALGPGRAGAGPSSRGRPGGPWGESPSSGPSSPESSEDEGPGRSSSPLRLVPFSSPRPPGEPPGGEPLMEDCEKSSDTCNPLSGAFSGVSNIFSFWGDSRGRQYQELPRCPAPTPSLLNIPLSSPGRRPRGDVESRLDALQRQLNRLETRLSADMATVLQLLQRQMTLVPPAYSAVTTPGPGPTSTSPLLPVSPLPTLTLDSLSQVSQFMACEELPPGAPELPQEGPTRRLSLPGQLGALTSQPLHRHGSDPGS
# T1 sequence (Q06187 whole entry): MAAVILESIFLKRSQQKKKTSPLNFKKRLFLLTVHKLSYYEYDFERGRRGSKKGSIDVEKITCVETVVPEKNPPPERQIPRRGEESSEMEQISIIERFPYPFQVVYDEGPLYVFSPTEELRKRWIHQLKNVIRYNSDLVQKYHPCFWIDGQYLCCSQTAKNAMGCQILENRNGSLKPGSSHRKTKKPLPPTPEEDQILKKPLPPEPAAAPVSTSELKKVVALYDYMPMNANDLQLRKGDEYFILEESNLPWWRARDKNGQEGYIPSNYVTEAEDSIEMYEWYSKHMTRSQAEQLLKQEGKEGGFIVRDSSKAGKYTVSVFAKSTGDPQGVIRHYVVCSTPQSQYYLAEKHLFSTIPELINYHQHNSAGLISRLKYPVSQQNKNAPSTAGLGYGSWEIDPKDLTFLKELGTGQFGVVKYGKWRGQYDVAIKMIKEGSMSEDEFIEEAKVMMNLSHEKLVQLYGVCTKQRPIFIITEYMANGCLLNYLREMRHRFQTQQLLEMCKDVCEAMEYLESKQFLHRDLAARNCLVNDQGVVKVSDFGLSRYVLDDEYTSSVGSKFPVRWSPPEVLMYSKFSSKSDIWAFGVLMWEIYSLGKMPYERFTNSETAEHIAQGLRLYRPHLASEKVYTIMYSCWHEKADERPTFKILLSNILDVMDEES
# T2 sequence (P35991 whole entry): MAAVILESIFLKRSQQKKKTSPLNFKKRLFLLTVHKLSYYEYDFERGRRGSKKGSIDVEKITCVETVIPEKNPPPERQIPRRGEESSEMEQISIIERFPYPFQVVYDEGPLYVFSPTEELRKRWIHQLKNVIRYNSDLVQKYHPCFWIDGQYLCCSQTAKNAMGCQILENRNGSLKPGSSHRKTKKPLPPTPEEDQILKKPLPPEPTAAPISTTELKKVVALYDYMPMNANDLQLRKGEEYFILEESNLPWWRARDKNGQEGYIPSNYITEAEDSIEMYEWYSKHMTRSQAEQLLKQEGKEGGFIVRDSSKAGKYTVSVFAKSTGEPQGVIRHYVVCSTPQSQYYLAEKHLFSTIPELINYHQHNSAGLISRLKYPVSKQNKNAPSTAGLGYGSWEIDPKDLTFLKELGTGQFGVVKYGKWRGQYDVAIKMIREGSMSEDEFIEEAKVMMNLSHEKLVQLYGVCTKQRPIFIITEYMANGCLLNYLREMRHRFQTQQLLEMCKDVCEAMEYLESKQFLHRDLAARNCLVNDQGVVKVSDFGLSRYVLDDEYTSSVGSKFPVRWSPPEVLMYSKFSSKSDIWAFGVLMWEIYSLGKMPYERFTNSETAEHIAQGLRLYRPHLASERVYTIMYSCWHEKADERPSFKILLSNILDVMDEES
# T3 sequence (Q96SW2 whole entry partner): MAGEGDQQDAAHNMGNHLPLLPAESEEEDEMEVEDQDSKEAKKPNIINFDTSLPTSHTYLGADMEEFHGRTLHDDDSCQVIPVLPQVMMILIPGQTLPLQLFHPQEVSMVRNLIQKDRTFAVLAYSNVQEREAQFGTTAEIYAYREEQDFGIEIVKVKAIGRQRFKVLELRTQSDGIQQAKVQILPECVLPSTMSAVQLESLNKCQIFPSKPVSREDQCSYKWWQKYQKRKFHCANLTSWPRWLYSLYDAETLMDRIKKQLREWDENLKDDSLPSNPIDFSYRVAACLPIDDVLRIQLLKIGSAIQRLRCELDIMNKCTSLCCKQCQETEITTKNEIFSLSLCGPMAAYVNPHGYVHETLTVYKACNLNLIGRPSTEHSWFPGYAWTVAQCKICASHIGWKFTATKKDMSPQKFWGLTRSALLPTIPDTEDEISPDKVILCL
# T3 sequence (Q16531 whole entry partner): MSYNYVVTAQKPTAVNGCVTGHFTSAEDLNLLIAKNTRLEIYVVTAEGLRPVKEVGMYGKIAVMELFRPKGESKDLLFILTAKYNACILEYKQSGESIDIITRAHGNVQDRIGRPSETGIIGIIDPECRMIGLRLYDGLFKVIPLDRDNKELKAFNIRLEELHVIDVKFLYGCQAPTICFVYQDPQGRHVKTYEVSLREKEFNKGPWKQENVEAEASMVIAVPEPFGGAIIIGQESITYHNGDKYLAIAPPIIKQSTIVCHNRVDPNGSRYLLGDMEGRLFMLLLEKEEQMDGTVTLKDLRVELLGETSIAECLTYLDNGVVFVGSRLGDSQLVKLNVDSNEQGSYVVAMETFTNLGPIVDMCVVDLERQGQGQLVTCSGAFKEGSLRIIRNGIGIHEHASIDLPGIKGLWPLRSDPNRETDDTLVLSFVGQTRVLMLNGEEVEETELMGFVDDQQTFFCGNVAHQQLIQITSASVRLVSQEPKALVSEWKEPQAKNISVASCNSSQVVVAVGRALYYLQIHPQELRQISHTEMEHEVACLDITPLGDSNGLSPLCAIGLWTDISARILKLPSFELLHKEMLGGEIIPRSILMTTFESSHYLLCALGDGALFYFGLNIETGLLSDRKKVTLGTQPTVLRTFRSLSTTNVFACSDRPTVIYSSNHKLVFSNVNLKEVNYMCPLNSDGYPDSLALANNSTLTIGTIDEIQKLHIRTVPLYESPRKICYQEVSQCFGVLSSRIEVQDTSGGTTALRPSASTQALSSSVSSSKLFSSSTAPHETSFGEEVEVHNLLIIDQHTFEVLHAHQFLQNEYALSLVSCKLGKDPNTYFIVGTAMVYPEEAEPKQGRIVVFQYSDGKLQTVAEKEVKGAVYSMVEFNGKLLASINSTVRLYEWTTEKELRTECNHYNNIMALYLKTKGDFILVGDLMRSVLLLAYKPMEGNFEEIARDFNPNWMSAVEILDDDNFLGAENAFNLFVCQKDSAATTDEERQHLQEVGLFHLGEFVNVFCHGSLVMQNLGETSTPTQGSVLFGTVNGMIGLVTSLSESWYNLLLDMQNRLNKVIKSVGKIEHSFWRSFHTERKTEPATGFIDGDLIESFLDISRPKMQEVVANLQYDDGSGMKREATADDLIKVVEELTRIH
# T3 sequence (Q9UKT9 whole entry): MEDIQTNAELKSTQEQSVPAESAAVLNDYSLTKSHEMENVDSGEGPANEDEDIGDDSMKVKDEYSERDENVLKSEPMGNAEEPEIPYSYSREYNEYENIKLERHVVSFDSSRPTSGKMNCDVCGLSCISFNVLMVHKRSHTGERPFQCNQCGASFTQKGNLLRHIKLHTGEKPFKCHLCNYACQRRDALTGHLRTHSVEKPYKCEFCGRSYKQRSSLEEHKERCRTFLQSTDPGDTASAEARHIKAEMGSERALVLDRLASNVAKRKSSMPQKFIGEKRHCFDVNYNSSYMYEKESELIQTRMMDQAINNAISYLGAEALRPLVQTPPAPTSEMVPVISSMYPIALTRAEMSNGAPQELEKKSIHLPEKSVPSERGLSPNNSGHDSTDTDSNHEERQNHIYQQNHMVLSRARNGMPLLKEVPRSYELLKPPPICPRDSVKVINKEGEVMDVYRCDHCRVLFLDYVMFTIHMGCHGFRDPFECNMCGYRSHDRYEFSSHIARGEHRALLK
IC50 (SU-DHL-4 cells) [nM],IC50 (SU-DHL-4 cells; listed as compound 85) [nM],IC50 (SU-DHL-6 cells) [nM],bioavailability ([1]; bioavailability) [%],AUC(0-t) [1] [ng·h/mL],DC50 (BTK) [nM],ED50 (BTK protein) [mg/kg],DC50 (Aiolos) [nM],"IC50 (SU-DHL-6 cells; Homo sapiens, SU-DHL-6, 72 h) [nM]",Compound,IC50 (Mino cells) [nM],IC50 [2] [µM]
624,10 to 1000,26,17.4 ± 5.6,3030 ± 982,1.6,3.3,≥ 1000,,"Nc1ncnc2c1c(-c1ccc(Oc3ccccc3)cc1)nn2C1CCN(C2CN(CC3CN(c4ccc5c(c4)C(=O)N(C4CCC(=O)NC4=O)C5=O)C3)C2)CC1 (stereo not shown) [Compound 85, 5-(3-((3-(4-(4-amino-3-(4-phenoxyphenyl)-1H-pyrazolo[3,4-d]pyrimidin-1-yl)piperidin-1-yl)azetidin-1-yl)methyl)azetidin-1-yl)-2-(2,6-dioxopiperidin-3-yl)isoindoline-1,3-dione]",32,
,,,,5820 ± 2260,,,,133,"Nc1ncnc2c1c(-c1ccc(Oc3ccccc3)cc1)nn2C1CCN(C2CN(CC3(F)CN(c4cc5c(cc4F)C(=O)N(C4CCC(=O)NC4=O)C5=O)C3)C2)CC1 (stereo not shown) [Compound 115, 5-(3-((3-(4-(4-amino-3-(4-phenoxyphenyl)-1H-pyrazolo[3,4-d]pyrimidin-1-yl)piperidin-1-yl)azetidin-1-yl)methyl)-3-fluoroazetidin-1-yl)-2-(2,6-dioxopiperidin-3-yl)-6-fluoroisoindoline-1,3-dione]",166,> 40
